Data on four compounds can be found in patent US20120252721A1 (priority 2011, published 2012).

In data set [1] the test system is HCV Con1 subgenomic replicon (GS4.1 cells). The data set can be described thus: HCV replicon assay (NS5A ELISA, 72 hrs). It is filed as cell-based. Particulars: Hepatitis C virus. Put shortly:
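GS4.1 cells (Huh-7 carrying the Con1 subgenomic replicon) were seeded at 7.5×10^3 cells/well and dosed 3 h later with ten 2-fold dilutions (top 75 μM) or a single 15 μM in 0.5% DMSO, then held 72 h at 37 °C. NS5A was quantified by cell ELISA (mAb A-236, OPD, A492), and EC50s came from four-parameter sigmoidal fits.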

Another data set in a line: in vitro. It is filed as cell-based. Particulars: human; GS4.1 cells, cellular viability. Here is the method: For cytotoxicity evaluation, GS4.1 cells were treated with compounds as described above and cellular viability was monitored using the Cell Titer 96 AQeous One Solution Cell Proliferation Assay (Promega). CC50 values were determined from the % cytotoxicity versus concentration data with Tecan Magellan software as described above.

For data set [2], the system named is ZS11-luc R30E (HCV genotype 1b replicon). In words: Luciferase replicon transient transfection assay, ZS11-luc R30E. It is filed as cell-based, hepatitis C virus. Conditions: for EC50: Hepatitis C virus, 96 h, Huh7.5 cells, 4 days. The procedure:
(§1) The luciferase replicon transient transfection assay measures the ability of a test compound to inhibit the replication of a transiently-transfected HCV luciferase-bearing wild-type or mutant replicon in cured human hepatoma cells (Huh7.5). The inhibition of HCV replication was measured by quantification of luciferase protein expression. This assay has been validated using a panel of genotype 1a and 1b replicons bearing mutations known to be associated with resistance to BMS-790052. Briefly, subconfluent Huh7.5 cells were electroporated with 10 μg of wild-type or mutant luciferase-bearing HCV replicon RNA. The cells were then seeded in 96-well opaque white plates at 3×10^4 cells/well in 150 μL/well and incubated for 4 hrs at 37° C./5% CO2. Ten 1:5 serial dilutions of each test compound were made in media (DMEM containing glucose, L-glutamine and sodium pyruvate, 10% fetal bovine serum, 100 IU/mL penicillin, 100 μg/mL streptomycin, 2 mM GlutaMAX, and 1×MEM non-essential amino acids (Mediatech, Inc. and Invitrogen Corp.)) at concentrations that were 4× higher than the final concentrations to be tested and 50 μL/well was added to the transfected cells. Untreated, mock-transfected cells served as a negative control of luciferase expression. The plates were incubated at 37° C./5% CO2 for 4 days whereupon the media was removed and 50 μL of ONE-glo luciferase substrate (Promega) was added to each well. The plates were agitated on a rotating platform at room temperature for 3 min and read in a Victor^3V microplate reader (Perkin-Elmer) using a 700 nm cut-off filter with a 1 sec read time. EC50 values were calculated from dose response curves from the resulting best-fit equations determined by Microsoft Excel and XLfit 4.1 software.
In general terms: Replicon systems follow genome replication, usually without infectious particles.

Data set [3] relates to 1a-luc L31F (HCV genotype 1a replicon). The data set can be described thus: Luciferase replicon transient transfection assay, 1a-luc L31F. It is filed as cell-based, hepatitis C virus. Particulars: for EC50: Hepatitis C virus, 96 h, Huh7.5 cells, 4 days. The procedure: as §1
Data set [4] has as its system ZS11-luc Y93N (HCV genotype 1b replicon). The data set can be described thus: Luciferase replicon transient transfection assay, ZS11-luc Y93N. The format is cell-based, hepatitis C virus. Particulars: for EC50: Hepatitis C virus, 96 h, Huh7.5 cells, 4 days. Here is the method: as §1
Another data set deals with HCV genotype 5a. The data set can be described thus: Replicon assay, genotype 5a (method not described). Conditions: Hepatitis C virus. The format is cell-based.
Data set [5] concerns HCV genotype 1a replicon, NS3 T260A. The data set can be described thus: Luciferase replicon transient transfection assay, genotype 1a NS3 T260A. The format is cell-based, hepatitis C virus. Particulars: for EC50: Hepatitis C virus, genotype 1a, HCV region NS3, mutation T260A. The procedure:
as §1
(§2) To determine the replication capacity of each mutant relative to the wild-type parental replicon, transfected cells were plated on two plates and were not treated with compound. Luciferase activity was measured at time points of 4 hrs and 4 days after plating for each replicon. Replication capacity was calculated by dividing the day 4 CPS by the 4 hour CPS for each replicon and determining the percentage present for each mutant replicon relative to wild-type replicon values. The NS3, NS4B, and NS5B mutants were prepared and tested according to the methods described herein.

Data set [6] relates to 1a-luc P32L (HCV genotype 1a replicon). The data set can be described thus: Luciferase replicon transient transfection assay, 1a-luc P32L. The format is cell-based, hepatitis C virus. Conditions: for EC50: Hepatitis C virus, 96 h, Huh7.5 cells, 4 days. Here is the method:
as §1

For data set [7], the system named is ZS11-luc replicon, NS3-R155K. The data set can be described thus: Luciferase replicon transient transfection assay, NS3-R155K. The format is cell-based, hepatitis C virus. Conditions: for EC50: Hepatitis C virus. Here is the method: as §1, §2
Data set [8] deals with 1a-luc M28T (HCV genotype 1a replicon). The data set can be described thus: Luciferase replicon transient transfection assay, 1a-luc M28T. Particulars: for EC50: Hepatitis C virus, 96 h, Huh7.5 cells, 4 days. It is filed as cell-based, hepatitis C virus. Here is the method:
as §1

Data set [9] has as its system ZS11-luc L28T (HCV genotype 1b replicon). The data set can be described thus: Luciferase replicon transient transfection assay, ZS11-luc L28T. It is filed as cell-based, hepatitis C virus. Conditions: for EC50: Hepatitis C virus, 96 h, Huh7.5 cells, 4 days. The procedure:
as §1

In data set [10] the test system is HCV genotype 1a replicon, NS5A E295G. In words: Luciferase replicon transient transfection assay, genotype 1a NS5A E295G. The format is cell-based, hepatitis C virus. Particulars: for EC50: Hepatitis C virus, genotype 1a, HCV region NS5A, mutation E295G. The procedure:
as §1

Data set [11] deals with 1a-luc Q30K (HCV genotype 1a replicon). The data set can be described thus: Luciferase replicon transient transfection assay, 1a-luc Q30K. The format is cell-based, hepatitis C virus. Particulars: for EC50: Hepatitis C virus, 96 h, Huh7.5 cells, 4 days. The procedure: as §1
Data set [12] has as its system 1a-luc L31M (HCV genotype 1a replicon). The data set can be described thus: Luciferase replicon transient transfection assay, 1a-luc L31M. Particulars: for EC50: Hepatitis C virus, 96 h, Huh7.5 cells, 4 days. It is filed as cell-based, hepatitis C virus. Here is the method: as §1

The compound `COC(=O)N[C@H](C(=O)N1CCC[C@H]1c1ncc(-c2ccc(-c3csc4c(-c5cnc([C@@H]6CCCN6C(=O)[C@@H](NC(=O)OC)C(C)C)[nH]5)csc34)cc2)[nH]1)C(C)C` [Compound A15, [(S)-1-((S)-2-{4-[4-(6-{2-[(S)-1-((S)-2-methoxycarbonylamino-3-methyl-butyryl)-pyrrolidin-2-yl]-3H-imidazol-4-yl}-thieno[3,2-b]thiophen-3-yl)-phenyl]-1H-imidazol-2-yl}-pyrrolidine-1-carbonyl)-2-methyl-propyl]-carbamic acid methyl ester] displayed an EC50 in data set [1] of less than 1 nM. This compound also had a CC50 in “in vitro” of 10000 to 75000 nM.
For `COC(=O)N[C@H](C(=O)N1CCC[C@H]1c1ncc(-c2ccc(-c3csc4c(-c5cnc([C@@H]6CCCN6C(=O)[C@H](NC(=O)OC(C)(C)C)c6ccccc6)[nH]5)csc34)cc2)[nH]1)C(C)C` [Compound A111, [(S)-1-((S)-2-{4-[4-(6-{(S)-2-[1-((R)-2-tert-butoxycarbonylamino-2-phenyl-acetyl)-pyrrolidin-2-yl]-3H-imidazol-4-yl}-thieno[3,2-b]thiophen-3-yl)-phenyl]-1H-imidazol-2-yl}-pyrrolidine-1-carbonyl)-2-methyl-propyl]-carbamic acid methyl ester], the EC50 in data set [1] was less than 1 nM. The compound further gave a CC50 in “in vitro” of more than 75000 nM.
On to `COC(=O)N[C@H](C(=O)N1CCC[C@H]1c1nc2cc(-c3csc4c(-c5ccc(-c6cnc([C@@H]7CCCN7C(=O)[C@H](NC(=O)OC)c7ccccc7)[nH]6)cc5)csc34)ccc2[nH]1)C(C)C` [Compound A169, [(S)-1-((S)-2-{6-[6-(4-{(S)-2-[1-((R)-2-methoxycarbonylamino-2-phenyl-acetyl)-pyrrolidin-2-yl]-3H-imidazol-4-yl}-phenyl)-thieno[3,2-b]thiophen-3-yl]-1H-benzoimidazol-2-yl}-pyrrolidine-1-carbonyl)-2-methyl-propyl]-carbamic acid methyl ester], for which the Ratio in data set [2] was 1; in data set [3], 68; in data set [4], 146; in [5] it was 1.57; in data set [6], 173; in data set [7] it was 1.01. For the same compound, the Ratio is recorded as 155 in [8]; 73 in data set [9]; 1.62 in data set [10]; 310 in data set [11]; 311 in data set [12]. For the same compound, the half-maximal effective concentration (EC50) was 0.003 nM in data set [2]; 0.15 nM in data set [3]; 0.4 nM in [4]; less than 0.1 nM in the data set with HCV genotype 5a; 0.003 nM in [5]; 0.4 nM in [6]. The EC50 is 0.0017 nM in data set [7]; 0.3 nM in data set [8]; 0.2 nM in data set [9]; 0.004 nM in data set [10]; 0.7 nM in [11]; 0.7 nM in data set [12].
For `COC(=O)N[C@H](C(=O)N1CCC[C@H]1c1ncc(-c2ccc(-c3csc4c(-c5ccc6[nH]c([C@@H]7CCCN7C(=O)[C@H](NC(=O)OC)c7ccccc7)nc6c5)csc34)cc2)[nH]1)C(C)C` [Compound A172, [(S)-1-((S)-2-{5-[4-(6-{(S)-2-[1-((R)-2-Methoxycarbonylamino-2-phenyl-acetyl)-pyrrolidin-2-yl]-3H-benzoimidazol-5-yl}-thieno[3,2-b]thiophen-3-yl)-phenyl]-1H-imidazol-2-yl}-pyrrolidine-1-carbonyl)-2-methyl-propyl]-carbamic acid methyl ester], the Ratio in [2] was determined as 1; in data set [3], 67; in data set [4], 65; in [5], 1.61; in data set [6], 173; in data set [7], 1.02. For the same compound, the Ratio in [8] is listed as 174; in data set [9], 63; in [10], 1.67; in [11] it was 317; in data set [12], 378. Moreover, the EC50 in data set [2] was 0.006 nM; in data set [3] it was 0.3 nM; in [4], 0.3 nM; with HCV genotype 5a, less than 0.1 nM; in data set [5], 0.006 nM; in data set [6], 0.7 nM. Moreover, the concentration for a half-maximal effect (EC50) in [7] was found to be 0.0023 nM; in [8], 0.7 nM; in [9], 0.2 nM; in data set [10], 0.006 nM; in [11] it was 1 nM; in [12] it was 2 nM.

One may read the EC50 as the concentration at which the effect is half-maximal. A word on the CC50: it is the concentration giving 50% cytotoxicity. Low readings indicate harm at low concentration, high ones better tolerance by the cells.
